In US20260250320A1, “LIPIDATED PEPTIDE INHIBITORS OF INTERLEUKIN-23 RECEPTOR” (Janssen Pharmaceutica NV, priority 2023, published 2026):
*1 amine or outer side, *2 acyl side, *3 side chain or, on linkers, in order; H or OH if unused. Where a SMILES comes first, the peptide text is derived from it. Bridges are numbered along the chain shown (N, C = ends). Side-chain parts run from the residue outwards. [ ]: non-standard residue; d: D form. The star is where a group is joined. X5 = O=C(O)CCCCCCCCCCCCCCCCC(=O)N[C@@H](CCC(=O)NC(=O)*)C(=O)O; X15 = C[N+](C)(C)CCOCCOCCC(=O)C[C@H](CCCCN[*:1])C(=O)[*:2]; Me3N+(CH2)2O(CH2)2O(CH2)2CO = C[N+](C)(C)CCOCCOCCC(=O)*; PEG12 = NCCOCCOCCOCCOCCOCCOCCOCCOCCOCCOCCOCCOCCC(=O)O; CH2CH2OCH2CH2OCH2CH2NMe3+ = C[N+](C)(C)CCOCCOCC*; Trp(7-Me) = Cc1cccc2c(C[C@H](N)C(=O)O)c[nH]c12; C18 diacid = O=C(O)CCCCCCCCCCCCCCCCC(=O)*; X20 = CC(=O)CCCCC[C@H](N[*:1])C(=O)[*:2]; γGlu = O=C(O)[C@H](CCC(=O)[*:2])N[*:1]; 2Nal = N[C@@H](Cc1ccc2ccccc2c1)C(=O)O; AEF = NCCOc1ccc(C[C@H](N)C(=O)O)cc1; X2 = C[N+](C)(C)C[C@@H](CC(=O)O)N*; 3Pal = N[C@@H](Cc1cccnc1)C(=O)O; Lys(Me) = CNCCCC[C@H](N)C(=O)O; NMeK = CN[C@@H](CCCCN)C(=O)O; Pen = CC(C)(S)[C@H](N)C(=O)O; Suc = O=C(CCC(=O)[*:2])[*:1]; Thp = NC1(C(=O)O)CCOCC1; X1 = C[N+](C)(C)CCCCC*; AEEA = NCCOCCOCC(=O)O; Sar = CNCC(=O)O

Experiments:
[1] = system: IL-23-stimulated phosphorylated STAT3 in peripheral blood mononuclear cells (PBMCs); experiment: PBMC pSTAT3 Assay; type: cell-based; settings: PBMCs from healthy donors; 30 min preincubation with peptide; IL-23 5 ng/mL for 30 min; phospho-STAT3 by MSD
Outline: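 Healthy-donor PBMCs expanded 4 days on anti-CD3 with 100 ng/mL IL-1β, starved ~4 h in RPMI-0.1% BSA, preincubated 30 min with peptide, then stimulated 30 min at 37 °C with 5 ng/mL IL-23. Lysate pSTAT3 measured by MSD phospho-STAT panel; IC50 derived.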

IL-23R = target: T1, IL-23R (Homo sapiens, UniProt Q5VWK5); experiment: IL23R Reporter Assay; type: cell-based; settings: HEK293 cells containing IL-23R, IL-12Rβ1 and STAT-inducible firefly luciferase reporter; 10 ng/mL IL-23 (EC90); 5 h
T1 construct: HEK293 cells containing IL-23R, IL-12Rβ1 and a firefly luciferase reporter gene driven by a STAT-inducible promoter (Promega); host or cells: HEK293
T1 sequence (Q5VWK5 24-629): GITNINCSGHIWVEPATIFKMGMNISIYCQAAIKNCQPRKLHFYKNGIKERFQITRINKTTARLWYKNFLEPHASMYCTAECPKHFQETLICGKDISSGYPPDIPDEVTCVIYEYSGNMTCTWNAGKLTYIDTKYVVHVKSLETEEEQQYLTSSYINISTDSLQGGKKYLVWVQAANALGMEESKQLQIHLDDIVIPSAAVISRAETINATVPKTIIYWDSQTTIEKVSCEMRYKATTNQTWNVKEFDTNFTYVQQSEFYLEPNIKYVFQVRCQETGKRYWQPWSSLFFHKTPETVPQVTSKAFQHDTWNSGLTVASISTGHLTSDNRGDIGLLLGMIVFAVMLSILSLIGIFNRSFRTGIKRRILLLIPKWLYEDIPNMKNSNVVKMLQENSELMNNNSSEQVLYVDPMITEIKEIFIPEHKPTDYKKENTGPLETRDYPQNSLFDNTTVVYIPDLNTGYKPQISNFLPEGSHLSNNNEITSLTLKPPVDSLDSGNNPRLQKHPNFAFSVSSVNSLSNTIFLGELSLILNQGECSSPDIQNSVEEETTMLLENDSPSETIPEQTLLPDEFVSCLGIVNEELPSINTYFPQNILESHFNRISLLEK
Outline: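 HEK293 cells carrying IL-23R, IL-12Rβ1 and a STAT-driven firefly luciferase reporter (4000 cells/well) received compound, then 10 ng/mL IL-23 solution (EC90), and were incubated for 5 h at 37° C. BioGlo luminescence was normalised to IL-23 alone (0%) and 30 μM control inhibitor (100%). IC50 came from a 4-parameter Hill fit.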

| SMILES | IC50 [1] | IC50 (IL-23R) |
| --- | --- | --- |
| CC(=O)NCCCC[C@@H]1NC(=O)[C@H](Cc2c[nH]c3c(C)cccc23)NC(=O)[C@H]([C@@H](C)O)NC(=O)[C@H](CC(N)=O)NC(=O)[C@@H](NC(=O)[C@@H](CCCNC(=N)N)NC(=O)CCC(=O)N[C@H](CC(=O)O)C[N+](C)(C)C)C(C)(C)SSC(C)(C)[C@@H](C(=O)N[C@@H](Cc2ccc(OCCN)cc2)C(=O)N[C@@H](Cc2ccc3ccccc3c2)C(=O)NC2(C(=O)N[C@@H](CCC(=O)O)C(=O)N[C@@H](CC(N)=O)C(=O)N[C@@H](Cc3cccnc3)C(=O)N(C)CC(=O)N[C@@H](CCCCNC(=O)COCCOCCNC(=O)COCCOCCNC(=O)CC[C@H](NC(=O)CCCCCCCCCCCCCCCCC(=O)O)C(=O)O)C(N)=O)CCOCC2)NC1=O [compound 54, succiniccarn-r-Pen(3)-N-T-7MeW-K(Ac)-Pen(3)-AEF-2Nal-THP-E-N-3Pya-Sar-K(PEG2PEG2gEC18OH)-CONH2] ({X2-Suc}-[dR][Pen]NT[Trp(7-Me)]K(Ac)[Pen][AEF][2Nal][Thp]EN[3Pal][Sar]K([AEEA-AEEA-γGlu-C18 diacid])-NH2; disulfide 2-7) | < 0.5 nM | 50 to 500 nM |
| CC(=O)NCCCC[C@@H]1NC(=O)[C@H](Cc2c[nH]c3c(C)cccc23)NC(=O)[C@H]([C@@H](C)O)NC(=O)[C@H](CC(N)=O)NC(=O)[C@@H](NC(=O)[C@@H](CCCNC(=N)N)NC(=O)CCC(=O)N[C@H](CC(=O)O)C[N+](C)(C)C)C(C)(C)SSC(C)(C)[C@@H](C(=O)N[C@@H](Cc2ccc(OCCNC(=O)COCCOCCNC(=O)COCCOCCNC(=O)NC(=O)CC[C@H](NC(=O)CCCCCCCCCCCCCCCCC(=O)O)C(=O)O)cc2)C(=O)N[C@@H](Cc2ccc3ccccc3c2)C(=O)NC2(C(=O)N[C@@H](CCC(=O)O)C(=O)N[C@@H](CC(N)=O)C(=O)N[C@@H](Cc3cccnc3)C(=O)N(C)CC(N)=O)CCOCC2)NC1=O [compound 11, succiniccarn-r-Pen(3)-N-T-7MeW-K(Ac)-Pen(3)-AEF(PEG2PEG2gEC18OH)-2Nal-THP-E-N-3Pya-Sar-CONH2] ({X2-Suc}-[dR][Pen]NT[Trp(7-Me)]K(Ac)[Pen][AEF]([AEEA-AEEA-X5])[2Nal][Thp]EN[3Pal][Sar]-NH2; disulfide 2-7) | 0.5 to 5 nM | 50 to 500 nM |
| CC(=O)N(C)CCCC[C@@H]1NC(=O)[C@H](Cc2c[nH]c3c(C)cccc23)NC(=O)[C@H]([C@@H](C)O)NC(=O)[C@H](CC(=O)N(C)C)NC(=O)[C@@H](NC(=O)CCOCCOCC[N+](C)(C)C)C(C)(C)SSC(C)(C)[C@@H](C(=O)N[C@@H](Cc2ccc(OCCOCCOCC[N+](C)(C)C)cc2)C(=O)N[C@@H](Cc2ccc3ccccc3c2)C(=O)NC2(C(=O)N[C@@H](CCCCN(C)C(C)=O)C(=O)N[C@@H](CC(N)=O)C(=O)N[C@@H](Cc3cccnc3)C(=O)N(C)[C@@H](CCCCNC(=O)CCOCCOCCOCCOCCOCCOCCOCCOCCOCCOCCOCCOCCNC(=O)CC[C@H](NC(=O)CCCCCCCCCCCCCCCCC(=O)O)C(=O)O)C(N)=O)CCOCC2)NC1=O [compound 107, cPEG3aCO-Pen(3)-N(N(Me)2)-T-7MeW-K(NMeAc)-Pen(3)-APEG3F-2Nal-THP-K(NMeAc)-N-3Pya-NMeK(PEG12gEC18OH)-CONH2] ({Me3N+(CH2)2O(CH2)2O(CH2)2CO}-[Pen]D(NMe2)T[Trp(7-Me)][Lys(Me)](Ac)[Pen]Y(CH2CH2OCH2CH2OCH2CH2NMe3+)[2Nal][Thp][Lys(Me)](Ac)N[3Pal][NMeK]([PEG12-γGlu-C18 diacid])-NH2; disulfide 1-6) | < 0.5 nM | < 50 nM |
| CC(=O)N(C)CCCC[C@@H]1NC(=O)[C@H](Cc2c[nH]c3c(C)cccc23)NC(=O)[C@H]([C@@H](C)O)NC(=O)[C@H](CC(=O)N(C)C)NC(=O)[C@@H](NC(=O)[C@@H](CCCCNC(=O)CCOCCOCCOCCOCCOCCOCCOCCOCCOCCOCCOCCOCCNC(=O)CC[C@H](NC(=O)CCCCCCCCCCCCCCCCC(=O)O)C(=O)O)CC(=O)CCOCCOCC[N+](C)(C)C)C(C)(C)SSC(C)(C)[C@@H](C(=O)N[C@@H](Cc2ccc(OCCCCC[N+](C)(C)C)cc2)C(=O)N[C@@H](Cc2ccc3ccccc3c2)C(=O)NC2(C(=O)N[C@@H](CCCCN(C)C(C)=O)C(=O)N[C@@H](CC(N)=O)C(=O)N[C@@H](Cc3cccnc3)C(=O)N(C)CC(=O)N(C)C)CCOCC2)NC1=O [compound 132, cPEG3aCO-k(PEG12gEC18OH)-Pen(3)-N(N(Me)2)-T-7MeW-K(NMeAc)-Pen(3)-TMAPF-2Nal-THP-K(NMeAc)-N-3Pya-Sar-CON(Me)2] ({C18 diacid-γGlu-PEG12}-[X15][Pen]D(NMe2)T[Trp(7-Me)][Lys(Me)](Ac)[Pen]Y(X1)[2Nal][Thp][Lys(Me)](Ac)N[3Pal][Sar]-NMe2; disulfide 2-7) | < 0.5 nM | < 50 nM |
| CC(=O)N(C)CCCC[C@H](CC(=O)C1(NC(=O)[C@H](Cc2ccc3ccccc3c2)NC(=O)[C@H](Cc2ccc(OCCNC(=O)C[N+](C)(C)CCNC(=O)COCCOCCNC(=O)COCCOCCNC(=O)CC[C@H](NC(=O)CCCCCCCCCCCCCCCCC(=O)O)C(=O)O)cc2)NC(=O)[C@@H]2CCCCC(C)[C@H](NC(=O)CCOCCOCC[N+](C)(C)C)C(=O)N[C@@H](CC(=O)N(C)C)N[C@@H]([C@@H](C)O)C(=O)N[C@@H](Cc3c[nH]c4c(C)cccc34)C(=O)N[C@@H](CCCCN(C)C(C)=O)C(=O)N2)CCOCC1)C(=O)C[C@@H](CC(N)=O)C(=O)N[C@@H](Cc1cccnc1)C(=O)N(C)CC(=O)N(C)C (stereo partly drawn) [compound 154, cPEG3aCO-Pen(3)-N(N(Me)2)-T-7MeW-K(NMeAc)-Pen(3)-AEF(SP6PEG2PEG2gEC18OH)-2Nal-THP-K(NMeAc)-N-3Pya-Sar-CON(Me)2] | < 0.5 nM | < 50 nM |
| CC(=O)CCCCC[C@@H]1NC(=O)[C@H](Cc2c[nH]c3c(C)cccc23)NC(=O)[C@H]([C@@H](C)O)NC(=O)[C@H](CC(N)=O)NC(=O)[C@@H](NC(C)=O)C(C)(C)SSC(C)(C)[C@@H](C(=O)N[C@@H](Cc2ccc(OCCN)cc2)C(=O)N[C@@H](CCC(=O)O)C(=O)N[C@@H](CC(N)=O)C(=O)N[C@@H](Cc2cccnc2)C(=O)N(C)CC(=O)N[C@@H](CCCCNC(=O)CCOCCOCCOCCOCCOCCOCCOCCOCCOCCOCCOCCOCCNC(=O)CC[C@H](NC(=O)CCCCCCCCCCCCCCCCC(=O)O)C(=O)O)C(N)=O)NC1=O [compound 161, MeCO-Pen(3)-N-T-7MeW-K(Ac)-Pen(3)-AEF-2Nal-THP-E-N-3Pya-Sar-K(PEG12gEC18OH)-CONH2] (Ac-[Pen]NT[Trp(7-Me)][X20][Pen][AEF]EN[3Pal][Sar]K([PEG12-γGlu-C18 diacid])-NH2; disulfide 1-6) | < 0.5 nM | < 50 nM |
| CC(=O)NCCCC[C@@H]1NC(=O)[C@H](Cc2c[nH]c3c(C)cccc23)NC(=O)[C@H]([C@@H](C)O)NC(=O)[C@H](CCCCNC(=O)CCC(=O)N[C@H](CC(=O)O)C[N+](C)(C)C)NC(=O)[C@@H](NC(=O)[C@@H](CCCNC(=N)N)NC(C)=O)C(C)(C)SSC(C)(C)[C@@H](C(=O)N[C@@H](Cc2ccc(OCCN)cc2)C(=O)N[C@@H](Cc2ccc3ccccc3c2)C(=O)NC2(C(=O)N[C@@H](CCC(=O)O)C(=O)N[C@@H](CC(N)=O)C(=O)N[C@@H](Cc3cccnc3)C(=O)N(C)CC(=O)N[C@@H](CCCCNC(=O)COCCOCCNC(=O)COCCOCCNC(=O)CC[C@H](NC(=O)CCCCCCCCCCCCCCCCC(=O)O)C(=O)O)C(N)=O)CCOCC2)NC1=O [compound 53, MeCO-r-Pen(3)-K(d)-T-7MeW-K(Ac)-Pen(3)-AEF-2Nal-THP-E-N-3Pya-Sar-K(PEG2PEG2gEC18OH)-CONH2] (Ac-[dR][Pen]K([Suc-X2])T[Trp(7-Me)]K(Ac)[Pen][AEF][2Nal][Thp]EN[3Pal][Sar]K([AEEA-AEEA-γGlu-C18 diacid])-NH2; disulfide 2-7) | < 0.5 nM | 50 to 500 nM |
| CC(=O)NCCCC[C@@H]1NC(=O)[C@H](Cc2c[nH]c3c(C)cccc23)NC(=O)[C@H]([C@@H](C)O)NC(=O)[C@H](CC(N)=O)NC(=O)[C@@H](NC(=O)[C@@H](CCCNC(=N)N)NC(=O)COCCOCCNC(=O)COCCOCCNC(=O)CC[C@H](NC(=O)CCCCCCCCCCCCCCCCC(=O)O)C(=O)O)C(C)(C)SSC(C)(C)[C@@H](C(=O)N[C@@H](Cc2ccc(OCCN)cc2)C(=O)N[C@@H](Cc2ccc3ccccc3c2)C(=O)NC2(C(=O)N[C@@H](CCC(=O)O)C(=O)N[C@@H](CC(N)=O)C(=O)N[C@@H](Cc3cccnc3)C(=O)N(C)CC(N)=O)CCOCC2)NC1=O [compound 60, HOC18gEPEG2PEG2CO-r-Pen(3)-N-T-7MeW-K(Ac)-Pen(3)-AEF-2Nal-THP-E-N-3Pya-Sar-CONH2] ({C18 diacid-γGlu-AEEA-AEEA}-[dR][Pen]NT[Trp(7-Me)]K(Ac)[Pen][AEF][2Nal][Thp]EN[3Pal][Sar]-NH2; disulfide 2-7) | < 0.5 nM | < 50 nM |
